Read-outs that look alike come from different tables or passages of the source.
Test system: Nematospiroides dubius
Test: Evaluation (Efficacy) Test in Mice, Nematospiroides dubius
Format: in vivo
Settings: for inhibition in vivo at 0.05 %: 0.05 % diet; for inhibition in vivo at 0.1 %: 0.1 % diet; for inhibition in vivo at 0.003 %: 0.003 % diet; for inhibition in vivo at 0.025 %: 0.025 % diet
Excerpt: The primary target parasite of this test is Nematospiroides dubius (Family: Heligmosomidae), which is phylogenetically related to certain economically important parasites of domestic and farm animals. Mice are orally inoculated with 20 to 30 infective N. dubius larvae. Mixed infections are obtained by subsequent inoculation with Aspicularis tetraptera and Hymenolepis nana. Eighteen days after inoculation the mice are divided into groups of four. Each group receives one compound at a specified dose rate, either as a single gavage dose or fed continually in the feed. Four groups of five mice each are utilized as infected, untreated controls. […] Those mice receiving single oral doses (SOD) or a single subcutaneous injection (Sc) of 5 mg./kg. to 100 mg./kg. of animal body weight of the compound under test are treated 22 days after inoculation. Eight days after start of treatment (drug diet) and 4 days post treatment (single dose SOD or Sc), the mice are necropsied, the worms recovered and counted. Percent efficacy for Nematospiroides is calculated using the formula: % Efficacy Equals [formula]
The diet used in the test procedures is a standard commercial mouse chow containing meat and bone meal, dried skimmed milk, wheat germ meal, fish meal, animal liver meal, dried beet pulp, ground extended corn, oat middlings, soybean meal, dehydrated alfalfa meal, cane molasses. animal fat preserved with BHA, vitamin B-12 supplement, calcium panthotenate, choline chloride, folic acid, riboflavin supplement, brewer's dried yeast, thiamine, niacin, vitamin A supplement, D activated plant sterol, vitamin E supplement, dicalcium phosphate, iodized salt, ferric ammonium citrate, iron oxide, manganous oxide, cobalt carbonate, copper oxide and zinc oxide; and the desired level of test compound.
When the drug is administered as a single oral dose, the drug is weighed and suspended in 0.2% agar, thoroughly mixed and orally introduced at the required volume.

[1] = Heligmosomoides polygyrus, po, single oral dose, 25 mg/kg, read-out: % Efficacy N.d.
[2] = drug diet, 0.006 % diet, 7 days
[3] = drug diet, 0.0125 % diet, 7 days
[4] = Heligmosomoides polygyrus, po, single oral dose, 5 mg/kg, read-out: % Efficacy N.d.
[5] = Heligmosomoides polygyrus, po, single oral dose, 10 mg/kg, read-out: % Efficacy N.d.
[6] = Heligmosomoides polygyrus, sc, subcutaneous, 10 mg/kg, read-out: % Efficacy N.d.
[7] = Heligmosomoides polygyrus, sc, subcutaneous, 25 mg/kg, read-out: % Efficacy N.d.
[8] = Heligmosomoides polygyrus, po, 168 h, drug diet, 7 days, read-out: % Efficacy N.d.
[9] = Heligmosomoides polygyrus, po, single oral dose, read-out: % Efficacy N.d.
[10] = Heligmosomoides polygyrus, po, 168 h, drug diet, 0.006 % diet, 7 days, read-out: % Efficacy N.d.
[11] = Heligmosomoides polygyrus, po, 168 h, drug diet, 0.0125 % diet, 7 days, read-out: % Efficacy N.d.

For `C(=P(c1ccccc1)(c1ccccc1)c1ccccc1)[P+](c1ccccc1)(c1ccccc1)c1ccccc1.[Cl-]` [Type II, R1 Phenyl, X Cl, Triphenyl[(triphenylphosphoranylidene)methyl]-phosphonium Chloride], the inhibition in vivo at 25 mg/kg [1] was 96%, the “% Efficacy N.d.” value [2] was 91% and the “% Efficacy N.d.” value [3] was 100%. For the same molecule, the “% Efficacy N.d.” value (single oral dose, 10 mg/kg) was 51%.

`C(=P(c1ccccc1)(c1ccccc1)c1ccccc1)[P+](c1ccccc1)(c1ccccc1)c1ccccc1.[Br-]` [Type II, R1 Phenyl, X Br, Triphenyl[(triphenylphosphoranylidene)methyl]-phosphonium Bromide] showed an inhibition in vivo at 5 mg/kg [4] of 32.5%, an inhibition in vivo at 10 mg/kg [5] of 65% and an inhibition in vivo at 10 mg/kg [6] of 74%. The inhibition in vivo at 25 mg/kg [7] was 94%, the “% Efficacy N.d.” value [2] was 94% and the “% Efficacy N.d.” value [3] was 100%. The “% Efficacy N.d.” value (single oral dose, 25 mg/kg) was 89%.

`Cc1ccc(P(=C[P+](c2ccccc2)(c2ccccc2)c2ccccc2)(c2ccccc2)c2ccccc2)cc1` was tested, and the inhibition in vivo at 0.05 % [8] was 59%, the inhibition in vivo at 0.1 % [8] was 67% and the inhibition in vivo at 50 mg/kg [9] was 31%. The inhibition in vivo at 100 mg/kg [9] was 67%.

With `CC(=P(c1ccccc1)(c1ccccc1)c1ccccc1)[P+](c1ccccc1)(c1ccccc1)c1ccccc1` [Type II, R2 Methyl, X I, Triphenyl[1-(triphenylphosphoranylidene)ethyl]-phosphonium Iodide] the inhibition in vivo at 0.003 % [8] was 57%, the inhibition in vivo at 0.006 % [10] was 98% and the inhibition in vivo at 0.0125 % [11] was 99%. It also gave an inhibition in vivo at 5 mg/kg [4] of 65%, an inhibition in vivo at 10 mg/kg [5] of 96% and an inhibition in vivo at 25 mg/kg [1] of 98%. For the same molecule, the inhibition in vivo at 5 mg/kg (Heligmosomoides polygyrus, sc, subcutaneous, 5 mg/kg, read-out: % Efficacy N.d.) was 80%, the inhibition in vivo at 10 mg/kg [6] was 95% and the inhibition in vivo at 25 mg/kg [7] was 100%.

Molecule `Cc1ccc([P+](C[P+](c2ccccc2)(c2ccccc2)c2ccccc2)(c2ccccc2)c2ccccc2)cc1` [P,P,P,P',P'-Pentaphenyl P'-p-tolyl-P,P' Methylenediphosphonium Dibromide] has an inhibition in vivo at 0.025 % [8] of 60%, an inhibition in vivo at 0.05 % [8] of 80% and an inhibition in vivo at 25 mg/kg [1] of 57%. The inhibition in vivo at 50 mg/kg [9] was 64% and the inhibition in vivo at 100 mg/kg [9] was 77%.

`CCCC(=P(c1ccccc1)(c1ccccc1)c1ccccc1)[P+](c1ccccc1)(c1ccccc1)c1ccccc1` [Type II, R2 n-Propyl, X I] gave an inhibition in vivo at 0.003 % [8] of 50%, an inhibition in vivo at 0.006 % [10] of 86% and an inhibition in vivo at 0.0125 % [11] of 88%. For the same molecule, the inhibition in vivo at 0.025 % [8] was 100%, the inhibition in vivo at 10 mg/kg [5] was 42% and the inhibition in vivo at 25 mg/kg [1] was 63%. It also gave an inhibition in vivo at 50 mg/kg [9] of 100%.

With `C=CCC(=P(c1ccccc1)(c1ccccc1)c1ccccc1)[P+](c1ccccc1)(c1ccccc1)c1ccccc1` [Type II, R2 Allyl, X Br] the inhibition in vivo at 0.0125 % [11] was 33%, the inhibition in vivo at 0.025 % [8] was 100% and the inhibition in vivo at 10 mg/kg [5] was 60%. It also gave an inhibition in vivo at 25 mg/kg [1] of 86% and an inhibition in vivo at 50 mg/kg [9] of 100%.

With `C(=P(c1ccccc1)(c1ccccc1)c1ccccc1)[P+](c1ccccc1)(c1ccccc1)c1ccccc1` [Type II, R1 Phenyl, X not printed] the inhibition in vivo at 5 mg/kg (Heligmosomoides polygyrus, po, single oral dose, 5 mg/kg, dosage weight is that of the cation, read-out: % Efficacy N.d.) was 49%, the “% Efficacy N.d.” value [2] was 85% and the “% Efficacy N.d.” value [3] was 100%. The “% Efficacy N.d.” value (single oral dose, 10 mg/kg, dosage weight is that of the cation) was 63% and the “% Efficacy N.d.” value (single oral dose, 25 mg/kg, dosage weight is that of the cation) was 94%.

`c1ccc(C[P+](C[P+](Cc2ccccc2)(c2ccccc2)c2ccccc2)(c2ccccc2)c2ccccc2)cc1` [Type I, R1 Benzyl, X Br, Methylenebis(benzyldiphenyl)phosphonium Dibromide] was tested, and the inhibition in vivo at 0.05 % [8] was 73%, the inhibition in vivo at 50 mg/kg [9] was 79% and the inhibition in vivo at 100 mg/kg [9] was 80%.

For `CSCC(=P(c1ccccc1)(c1ccccc1)c1ccccc1)[P+](c1ccccc1)(c1ccccc1)c1ccccc1` [Type II, R2 CH3 --S--CH2 --, X Cl, [2-(methylthio)-1-(triphenylphosphoranylidene)-ethyl]triphenylphosphonium Chloride], the inhibition in vivo at 0.025 % [8] was 56%, the inhibition in vivo at 0.05 % [8] was 65% and the inhibition in vivo at 0.1 % [8] was 97%.

Molecule `c1ccc([P+](C[P+](c2ccccc2)(c2ccccc2)c2ccccc2)(c2ccccc2)c2ccccc2)cc1` [Type I, R1 Phenyl, X Br, Methylenebis Triphenylphosphonium Dibromide] has an inhibition in vivo at 0.025 % [8] of 100%, an inhibition in vivo at 0.125 % (Heligmosomoides polygyrus, po, 168 h, drug diet, 0.125 % diet, 7 days, read-out: % Efficacy N.d.) of 94% and an inhibition in vivo at 10 mg/kg [6] of 42%. For the same molecule, the inhibition in vivo at 25 mg/kg [7] was 84%, the “% Efficacy N.d.” value [2] was 78% and the “% Efficacy N.d.” value (single oral dose, 5 mg/kg) was 49%. For the same molecule, the “% Efficacy N.d.” value (single oral dose, 10 mg/kg) was 51.5% and the “% Efficacy N.d.” value (single oral dose, 25 mg/kg) was 95.5%.

Molecule `c1ccc([P+](C[P+](c2ccccc2)(c2ccccc2)c2ccccc2)(c2ccccc2)c2ccccc2)cc1` [Type I, R1 Phenyl, X Cl, methylenebis triphenylphosphonium dichloride] has an inhibition in vivo at 0.006 % [10] of 85%, an inhibition in vivo at 0.0125 % [11] of 100% and an inhibition in vivo at 25 mg/kg [1] of 96.5%. For the same molecule, the “% Efficacy N.d.” value (single oral dose, 5 mg/kg) was 85% and the “% Efficacy N.d.” value (single oral dose, 10 mg/kg) was 84%.

`c1ccc(CC(=P(c2ccccc2)(c2ccccc2)c2ccccc2)[P+](c2ccccc2)(c2ccccc2)c2ccccc2)cc1` [Type II, R2 Benzyl, X Br] was tested, and the inhibition in vivo at 0.0125 % [11] was 89%, the inhibition in vivo at 0.025 % [8] was 96% and the inhibition in vivo at 0.05 % [8] was 100%. It also gave an inhibition in vivo at 25 mg/kg [1] of 72% and an inhibition in vivo at 50 mg/kg [9] of 100%.

`CCC(=P(c1ccccc1)(c1ccccc1)c1ccccc1)[P+](c1ccccc1)(c1ccccc1)c1ccccc1` [Type II, R2 Ethyl, X I] was tested, and the inhibition in vivo at 0.006 % [10] was 46%, the inhibition in vivo at 0.0125 % [11] was 74% and the inhibition in vivo at 0.025 % [8] was 100%. For the same molecule, the inhibition in vivo at 10 mg/kg [5] was 68%, the inhibition in vivo at 25 mg/kg [1] was 75% and the inhibition in vivo at 50 mg/kg [9] was 85%.

In the case of `Cc1ccc([P+](C[P+](c2ccccc2)(c2ccccc2)c2ccc(C)cc2)(c2ccccc2)c2ccccc2)cc1` [Type I, R1 p-tolyl, X Br, Methylenebis(diphenyl-p-tolyl) Phosphonium Dibromide], the inhibition in vivo at 0.1 % [8] is reported as 57%, the inhibition in vivo at 50 mg/kg [9] is reported as 57% and the inhibition in vivo at 100 mg/kg [9] is reported as 75%.

Work on `IC(=P(c1ccccc1)(c1ccccc1)c1ccccc1)[P+](c1ccccc1)(c1ccccc1)c1ccccc1` [Type II, R2 I, X I] yielded an inhibition in vivo at 0.006 % [10] of 54%, an inhibition in vivo at 0.0125 % [11] of 98% and an inhibition in vivo at 0.025 % [8] of 100%. For the same molecule, the inhibition in vivo at 50 mg/kg [9] was 70%.

`COc1cccc(CC(=P(c2ccccc2)(c2ccccc2)c2ccccc2)[P+](c2ccccc2)(c2ccccc2)c2ccccc2)c1` [Type II, R2 m-methoxybenzyl, X Cl] gave an inhibition in vivo at 0.0125 % [11] of 58%, an inhibition in vivo at 0.025 % [8] of 88% and an inhibition in vivo at 0.05 % [8] of 100%. The inhibition in vivo at 50 mg/kg [9] was 58% and the inhibition in vivo at 100 mg/kg [9] was 76%.

For `C(=P(c1ccccc1)(c1ccccc1)c1ccccc1)[P+](c1ccccc1)(c1ccccc1)c1ccccc1` [Type II, R1 Phenyl, X Br^-.CuBr2], the inhibition in vivo at 0.025 % [8] was 100%, the inhibition in vivo at 10 mg/kg (Heligmosomoides polygyrus, po, single oral dose, 10 mg/kg, dosage weight is that of the cation, read-out: % Efficacy N.d.) was 43% and the inhibition in vivo at 25 mg/kg (Heligmosomoides polygyrus, po, single oral dose, 25 mg/kg, dosage weight is that of the cation, read-out: % Efficacy N.d.) was 76%. The “% Efficacy N.d.” value [3] was 51%.

`Cc1ccc(P(=C[P+](c2ccccc2)(c2ccccc2)c2ccc(C)cc2)(c2ccccc2)c2ccccc2)cc1` [Type II, R1 p-tolyl, X Br] showed an inhibition in vivo at 0.1 % [8] of 53%, an inhibition in vivo at 50 mg/kg [9] of 36% and an inhibition in vivo at 100 mg/kg [9] of 89%.

`C(=P(c1ccccc1)(c1ccccc1)c1ccccc1)[P+](c1ccccc1)(c1ccccc1)c1ccccc1.[I-]` [Type II, R1 Phenyl, X I, Triphenyl[(triphenylphosphoranylidene)methyl]-phosphonium Iodide] was tested, and the “% Efficacy N.d.” value [2] was 89%, the “% Efficacy N.d.” value [3] was 100% and the “% Efficacy N.d.” value (single oral dose, 5 mg/kg) was 26%. The “% Efficacy N.d.” value (single oral dose, 10 mg/kg) was 67% and the “% Efficacy N.d.” value (single oral dose, 25 mg/kg) was 91%.

Reference: patent US3957978A, “Phosphonium anti-parasitics” (American Cyanamid Company, priority 1975, dated 1976)
